“Also recorded” adds a separate entry of the source.
Legend:
male Sprague–Dawley rats [1] = assay: Pulmonary function evaluation in conscious rats (GLP); format: in vivo; conditions: oral, 220, 440, 660 mg/kg
Method: The potential effects of orally administered SRP-001 on respiratory rate, tidal volume, and minute volume in conscious male Sprague–Dawley rats was studied in 24 male rats. The rodents were trained for two days in the head-out plethysmograph chamber for 15–17 min each prior to the experiment. On the day of dosing, each animal was weighed and placed in the plethysmograph chamber, and baseline respiratory parameters were obtained for 5 min following an approximately 5-min stabilization period. The rats were then removed from the chamber and dosed by oral gavage. Three groups of six male Sprague–Dawley rats each were orally administered SRP-001 at a single dose of 220, 440, or 660 mg/kg at a dose volume of 10 mL/kg. […] Following dosing, each animal was returned to its designated plethysmograph chamber, and the respiratory parameters were recorded at 30 min (± 5 min), 2, 4, and 6 h (± 15 min). Animals were allowed to stabilize in the plethysmograph chamber for at least 5 min before each reading was taken. The following parameters were acquired, recorded, and analyzed using Ponemah Physiology Platform (Ponemah v.5.20 Pulmonary); Respiratory rate, Tidal Volume, and Minute Volume, Values for the test article treated group were compared to the vehicle control values using a two-way repeated measures ANOVA followed by a Bonferroni Multiple Comparison Test (SigmaStat, v. 4.0). […]

male Sprague–Dawley rats [2] = assay: Neuropharmacological profile, modified Irwin/Functional Observational Battery (GLP); format: in vivo; conditions: for Body temperature versus vehicle: 1 h post-dose
Method: Any potential neuropharmacological effects of orally administered SRP-001 in rats were assessed in three groups of eight male Sprague–Dawley rats. Each was orally administered SRP-001 at a single dose of 220, 440, or 660 mg/kg. Vehicle (10% labrasol: 10% DMSO: 80% PEG400) was administered to an additional group of eight rats. The dose volume was 10 mL/kg. […] All observations were made at ± 5 min for the observations through 1 h post-dose and ± 15 min for the later observations. Body temperature was measured 1 h following dose administration.

[3] = test system: Chinese Hamster ovary cells; assay: In vitro mammalian chromosomal aberration assay; format: cell-based; conditions: for Doses with cytotoxicity (≥ 45% reduction in cell growth index): non-activated 20-h exposure
Method: In the preliminary toxicity assay, the doses tested ranged from 0.0405 to 405 µg/mL (1 mM), which was the limit dose for this assay (Bioreliance, Rockville, MD USA).
The doses selected for evaluation of chromosome aberrations were 150, 300, and 405 µg/mL for the non-activated and S9-activated 4-h exposure groups; and 10, 40, and 80 µg/mL for the non-activated 20-h exposure group. […] The induction of structural aberrations was outside the 95% control limit of the historical negative control data of 0.00% to 2.79%. […] However, the induction of structural aberrations was within the 95% control limit of the historical negative control data of 0.00% to 4.28%. […] The induction of structural aberrations was outside the 95% control limit of the historical negative control data of 0.00% to 2.68%.
The induction of numerical aberrations was within the 95% control limit of the historical negative control data.

[4] = test system: Rat liver and stomach cells; assay: In vivo mammalian alkaline comet assay; set-up: species or system rats
Method: Male Sprague–Dawley rats were orally administered SRP-001 at 500, 1000, or 2000 mg/kg/dose for two consecutive days at a dose volume of 10 mL/kg/dose (Bioreliance, Rockville, MD USA). The vehicle control was 10% Labrasol, 10% DMSO, and 80% PEG400. The positive control for the Comet assay, ethyl methanesulfonate (EMS), was orally administered at 200 mg/kg/dose for two consecutive days at a dose volume of 10 mL/kg/dose. […] Animals were euthanized 3–4 h after the last dose administration. The liver and glandular stomach were collected and processed for comet evaluation.
The group mean % tail DNA for the vehicle control was within the 95% control limit of the study historical data range, with one animal (#160) exceeding the individual animal 95% control limit but within the minimum/maximum range. Additionally, three animals (#173, 174, and 175) in the mid-dose (1000 mg/kg/dose) group likewise exceeded the individual animal 95% control limit but were within the minimum/maximum range.
The group mean % tail DNA for the vehicle control was within the 95% control limit of the study historical data range, with one animal (#158) exceeding both the individual animal 95% control limit and minimum/maximum ranges. One animal (#171) in the mid-dose (1000 mg/kg/dose) group and one animal (#180) in the high-dose (2000 mg/kg/dose) group exceeded just the 95% control limit range but were within the minimum/maximum range. One animal (#170) in the mid-dose (1000 mg/kg/dose) group and one animal (#179) in the high-dose (2000 mg/kg/dose) group exceeded both the individual animal 95% control limit and minimum/maximum ranges.

beagle dogs = assay: Single oral dose (capsule) toxicity and pharmacokinetic study (non-GLP); format: in vivo; conditions: single dose 300 mg/kg
Method: SRP-001 was prepared into capsules for oral administration. Three experimentally non-naïve Beagle dogs, at least 7 months old and weighing 7.7 to 10 kg prior to treatment initiation, were administered a single dose of 300 mg/kg SRP-001 (Calvert Labs/Altasciences, Scott Township, PA USA). On the day of dosing, animals were observed prior to dose administration, approximately 1–3 h post-dose, and once on day 2. Body weights were recorded for all animals prior to dose administration for the preparation of the capsules. Blood for bioanalytical evaluation was collected at selected timepoints on day 1. Following the completion of the study, surviving animals were not euthanized. They were returned to the Calvert colony for an appropriate washout period before possible use in a subsequent study. […] Plasma samples were collected at seven different time points post-dose.

For `CCN(CC)C(=O)c1ccccc1S(=O)(=O)NCC(=O)Nc1ccc(O)cc1` [SRP-001, N,N-diethyl-2-[[2-(4-hydroxyanilino)-2-oxo-ethyl]sulfamoyl]benzamide], the “Respiratory findings (respiratory rate, tidal volume, minute volume)” value (male Sprague–Dawley rats [1]) was “did not induce any significant effects; also recorded: No significant findings”, the “Body temperature versus vehicle” value (male Sprague–Dawley rats [2]; 220 or 440 mg/kg) was “not affected” and the “Body temperature versus vehicle” value (male Sprague–Dawley rats [2]; high-dose group (660 mg/kg)) was “significantly (p ≤ 0.05) lower; also recorded: lower body temperature; also recorded: Decreased body temp”. The “Neuropharmacological or clinical signs” value (male Sprague–Dawley rats [2]; oral, 220, 440, 660 mg/kg, through 24 h post-dose) was “No apparent neuropharmacological or clinical signs; also recorded: No apparent neuropharmacological effects”, the “Cytotoxicity (≥ 45% reduction in cell growth index)” value [3] was “not observed at any dose” and the “Induction of numerical chromosomal aberrations” value [3] was “negative”. For the same molecule, the “Induction of structural chromosomal aberrations” value [3] was “positive”, the Structural aberrations ([3]; Chinese hamster, 20 h, 80 µg/mL) was 3.7% and the “Dose with cytotoxicity (≥ 45% reduction in cell growth index)” value ([3]; chromosome aberration assay, non-activated 4-h exposure) was 405 µg/mL. For the same molecule, the “Doses with cytotoxicity (≥ 45% reduction in cell growth index)” value ([3]; chromosome aberration assay) was ≥ 70 µg/mL, the “Doses with cytotoxicity (≥ 45% reduction in cell growth index)” value ([3]; preliminary toxicity assay) was ≥ 122 µg/mL and the “% tail DNA, glandular stomach” value ([4]; 500, 1000, 2000 mg/kg/dose) was “No statistically significant increases”. The “% tail DNA, liver” value ([4]; 500, 1000, 2000 mg/kg/dose) was “No statistically significant increases”, the “Comet assay result (DNA damage in liver and stomach)” value ([4]; up to 2000 mg/kg/dose, two consecutive days, oral) was “negative; also recorded: negative (non-DNA damaging)” and the “Bioavailability (bioanalytical analysis of plasma)” value (beagle dogs) was “poor bioavailability”. For the same molecule, the Tolerability (beagle dogs) was “well tolerated”.

Source: publication PMC11096368, “Transcriptomic signature, bioactivity and safety of a non-hepatotoxic analgesic generating AM404 in the midbrain PAG region” (Scientific Reports, 2024)
